In the supplement of paper PMC10307832:

Experiments:
Test in all cases: relative viability (nuclei count vs DMSO), 5 days (fraction); higher = more cells survive
NCI-H1563 = test system: NCI-H1563
In short: (§1)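 Lung cancer cell lines were pin-tool dosed in 1536-well plates on the day after seeding, with either a lone drug or a fixed anchor-drug dose plus five library-drug doses (not always all listed) in √10 steps. Nuclei were counted on 4× images after 5 days. Relative viability is the ratio of treated-well to vehicle-well nuclei counts, with each value a median of duplicate plates.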

NCI-H1355 = test system: NCI-H1355
In short: as §1

LCLC-103H = test system: LCLC-103H
In short: as §1

NCI-H661 = test system: NCI-H661
In short: as §1

NCI-H441 = test system: NCI-H441
In short: as §1

NCI-H2347 = test system: NCI-H2347
In short: as §1

NCI-H596 = test system: NCI-H596
In short: as §1

NCI-H3122 = test system: NCI-H3122
In short: as §1

RERF-LC-KJ = test system: RERF-LC-KJ
In short: as §1

PC-14 = test system: PC-14
In short: as §1

SK-MES-1 = test system: SK-MES-1
In short: as §1

NCI-H1651 = test system: NCI-H1651
In short: as §1

NCI-H460 = test system: NCI-H460
In short: as §1

SW 900 = test system: SW 900
In short: as §1

NCI-H2170 = test system: NCI-H2170
In short: as §1

LXF-289 = test system: LXF-289
In short: as §1

NCI-H1755 = test system: NCI-H1755
In short: as §1

NCI-H727 = test system: NCI-H727
In short: as §1

NCI-H520 = test system: NCI-H520
In short: as §1

NCI-H322M = test system: NCI-H322M
In short: as §1

NCI-H1915 = test system: NCI-H1915
In short: as §1

NCI-H650 = test system: NCI-H650
In short: as §1

## NC(=O)Nc1cc(-c2cccc(F)c2)sc1C(=O)N[C@H]1CCCNC1 [AZD7762] + COc1cc2c(Oc3ccc(NC(=O)C4(C(=O)Nc5ccc(F)cc5)CC4)cc3F)ccnc2cc1OCCCN1CCOCC1 [Foretinib] (partner 0.25 µM)
NCI-H1563; first compound 0.01 µM
  relative viability: 1.04
NCI-H1563; first compound 0.03162 µM
  relative viability: 0.967
NCI-H1563; first compound 0.1 µM
  relative viability: 0.974
NCI-H1563; first compound 0.3162 µM
  relative viability: 0.94
NCI-H1563; first compound 1 µM
  relative viability: 0.83
NCI-H1355; first compound 0.01 µM
  relative viability: 0.964
NCI-H1355; first compound 0.03162 µM
  relative viability: 0.975
NCI-H1355; first compound 0.1 µM
  relative viability: 0.967
NCI-H1355; first compound 0.3162 µM
  relative viability: 1.02
NCI-H1355; first compound 1 µM
  relative viability: 0.995
LCLC-103H; first compound 0.01 µM
  relative viability: 0.815
LCLC-103H; first compound 0.03162 µM
  relative viability: 0.829
LCLC-103H; first compound 0.1 µM
  relative viability: 0.82
LCLC-103H; first compound 0.3162 µM
  relative viability: 0.764
LCLC-103H; first compound 1 µM
  relative viability: 0.823
NCI-H661; first compound 0.01 µM
  relative viability: 1.08
NCI-H661; first compound 0.03162 µM
  relative viability: 1.1
NCI-H661; first compound 0.1 µM
  relative viability: 1.12
NCI-H661; first compound 0.3162 µM
  relative viability: 1.03
NCI-H661; first compound 1 µM
  relative viability: 0.598
NCI-H441; first compound 0.01 µM
  relative viability: 1.3
NCI-H441; first compound 0.03162 µM
  relative viability: 1.07
NCI-H441; first compound 0.1 µM
  relative viability: 1.11
NCI-H441; first compound 0.3162 µM
  relative viability: 1.19
NCI-H441; first compound 1 µM
  relative viability: 0.955
NCI-H2347; first compound 0.01 µM
  relative viability: 1.55
NCI-H2347; first compound 0.03162 µM
  relative viability: 0.791
NCI-H2347; first compound 0.1 µM
  relative viability: 0.767
NCI-H2347; first compound 0.3162 µM
  relative viability: 0.616
NCI-H2347; first compound 1 µM
  relative viability: 0.51
NCI-H596; first compound 0.01 µM
  relative viability: 0.993
NCI-H596; first compound 0.03162 µM
  relative viability: 1.04
NCI-H596; first compound 0.1 µM
  relative viability: 1.01
NCI-H596; first compound 0.3162 µM
  relative viability: 0.923
NCI-H596; first compound 1 µM
  relative viability: 0.744
NCI-H3122; first compound 0.01 µM
  relative viability: 0.911
NCI-H3122; first compound 0.03162 µM
  relative viability: 0.905
NCI-H3122; first compound 0.1 µM
  relative viability: 0.995
NCI-H3122; first compound 0.3162 µM
  relative viability: 0.996
NCI-H3122; first compound 1 µM
  relative viability: 0.996
RERF-LC-KJ; first compound 0.01 µM
  relative viability: 0.882
RERF-LC-KJ; first compound 0.03162 µM
  relative viability: 0.891
RERF-LC-KJ; first compound 0.1 µM
  relative viability: 0.965
RERF-LC-KJ; first compound 0.3162 µM
  relative viability: 0.944
RERF-LC-KJ; first compound 1 µM
  relative viability: 0.97
PC-14; first compound 0.01 µM
  relative viability: 1.04
PC-14; first compound 0.03162 µM
  relative viability: 0.927
PC-14; first compound 0.1 µM
  relative viability: 0.973
PC-14; first compound 0.3162 µM
  relative viability: 0.885
PC-14; first compound 1 µM
  relative viability: 0.361
SK-MES-1; first compound 0.01 µM
  relative viability: 0.83
SK-MES-1; first compound 0.03162 µM
  relative viability: 0.973
SK-MES-1; first compound 0.1 µM
  relative viability: 1.02
SK-MES-1; first compound 0.3162 µM
  relative viability: 0.903
SK-MES-1; first compound 1 µM
  relative viability: 0.528
NCI-H1651; first compound 0.01 µM
  relative viability: 0.912
NCI-H1651; first compound 0.03162 µM
  relative viability: 0.785
NCI-H1651; first compound 0.1 µM
  relative viability: 0.693
NCI-H1651; first compound 0.3162 µM
  relative viability: 0.573
NCI-H1651; first compound 1 µM
  relative viability: 0.186
NCI-H460; first compound 0.01 µM
  relative viability: 1.12
NCI-H460; first compound 0.03162 µM
  relative viability: 1
NCI-H460; first compound 0.1 µM
  relative viability: 1.01
NCI-H460; first compound 0.3162 µM
  relative viability: 0.964
NCI-H460; first compound 1 µM
  relative viability: 0.176
SW 900; first compound 0.01 µM
  relative viability: 0.777
SW 900; first compound 0.03162 µM
  relative viability: 0.84
SW 900; first compound 0.1 µM
  relative viability: 1.29
SW 900; first compound 0.3162 µM
  relative viability: 0.825
SW 900; first compound 1 µM
  relative viability: 0.533
NCI-H2170; first compound 0.01 µM
  relative viability: 0.925
NCI-H2170; first compound 0.03162 µM
  relative viability: 1.06
NCI-H2170; first compound 0.1 µM
  relative viability: 0.984
NCI-H2170; first compound 0.3162 µM
  relative viability: 1.04
NCI-H2170; first compound 1 µM
  relative viability: 1.13
LXF-289; first compound 0.01 µM
  relative viability: 0.991
LXF-289; first compound 0.03162 µM
  relative viability: 1.05
LXF-289; first compound 0.1 µM
  relative viability: 1.05
LXF-289; first compound 0.3162 µM
  relative viability: 1.01
LXF-289; first compound 1 µM
  relative viability: 1.08
NCI-H1755; first compound 0.01 µM
  relative viability: 0.908
NCI-H1755; first compound 0.03162 µM
  relative viability: 0.96
NCI-H1755; first compound 0.1 µM
  relative viability: 0.921
NCI-H1755; first compound 0.3162 µM
  relative viability: 0.918
NCI-H1755; first compound 1 µM
  relative viability: 0.473
NCI-H727; first compound 0.01 µM
  relative viability: 0.989
NCI-H727; first compound 0.03162 µM
  relative viability: 0.804
NCI-H727; first compound 0.1 µM
  relative viability: 0.728
NCI-H727; first compound 0.3162 µM
  relative viability: 0.889
NCI-H727; first compound 1 µM
  relative viability: 0.466
NCI-H520; first compound 0.01 µM
  relative viability: 0.989
NCI-H520; first compound 0.03162 µM
  relative viability: 0.826
NCI-H520; first compound 0.1 µM
  relative viability: 0.803
NCI-H520; first compound 0.3162 µM
  relative viability: 0.518
NCI-H520; first compound 1 µM
  relative viability: 0.351
NCI-H322M; first compound 0.01 µM
  relative viability: 0.979
NCI-H322M; first compound 0.03162 µM
  relative viability: 1.09
NCI-H322M; first compound 0.1 µM
  relative viability: 1.09
NCI-H322M; first compound 0.3162 µM
  relative viability: 0.601
NCI-H322M; first compound 1 µM
  relative viability: 0.315
NCI-H1915; first compound 0.01 µM
  relative viability: 1.18
NCI-H1915; first compound 0.03162 µM
  relative viability: 1.08
NCI-H1915; first compound 0.1 µM
  relative viability: 1.09
NCI-H1915; first compound 0.3162 µM
  relative viability: 1.04
NCI-H1915; first compound 1 µM
  relative viability: 0.981
NCI-H650; first compound 0.01 µM
  relative viability: 1.13
NCI-H650; first compound 0.03162 µM
  relative viability: 0.991
NCI-H650; first compound 0.1 µM
  relative viability: 1.03
NCI-H650; first compound 0.3162 µM
  relative viability: 1.03
NCI-H650; first compound 1 µM
  relative viability: 1.05
